Patent US20220348565A1, “PHARMACEUTICAL COMPOUNDS” (SENTINEL ONCOLOGY LIMITED, priority 2019, published 2022)

Key:
[1] = Mouse PK, brain exposure after p.o. dosing; type: in vivo, Male CD-1 mice
Experimental: (§1) Atropisomers A-2 and A-3 were evaluated in an in vivo mouse model to determine brain and plasma concentrations following p.o. and i.v. dosing.
(§2) Male CD-1 mice were dosed with the compounds of Examples A-2 and A-3, either by i.v. administration (2 mg/kg) or by p.o. administration (10 mg/kg). Eight samples were taken for analysis in the i.v. leg at 2, 10, 30 min, 1, 2, 4, 8, and 24 (for i.v) and 9 samples in the p.o. leg at 15, 30 min, 1, 2, 4, 8, 24, 48 and 72 hrs.
(§3) The compounds of Examples A-2 and A-3 were both formulated in 10% DMSO/90% hydroxypropyl-beta-cyclodextrin (20% w/v in water) for i.v. and p.o. dosing. N =3 mice per time point.
(§4) Post dosing, terminal blood samples were taken from individual animals and delivered into labelled polypropylene tubes containing anticoagulant (EDTA). The samples were held on wet ice for a maximum of 30 min while sampling of all the animals in the cohort was completed. The blood samples were centrifuged for plasma (4° C., 21100 g for 5 min) and the resulting plasma transferred into corresponding labelled tubes. Terminal brains from each PO dosed animal were excised, rinsed with saline and placed into pre-weighed labelled polypropylene tubes and the samples re-weighed prior to storage.
(§5) Quantitative bioanalysis was carried out using liquid chromatography—mass spectroscopy was performed. The results are shown in Tables 14, 15 and 16 below and in FIGS. 12 to 15.

U87MG tumours = assay: U87MG subcutaneous xenograft model; type: in vivo, Male athymic nude mice; conditions: oral 100 mg/kg on days 1, 4 and 7; day 13
Experimental: Male athymic nude mice bearing U87MG tumours were given an oral dose of 100 mg/kg of atropisomer A-2 on days 1, 4 and 7 and the tumour volumes were measured over 20 days. Tumour volumes in a control group of tumour-bearing mice, who had received vehicle only at the same time points were also measured.

[2] = tested on: HeLa cells stably expressing a Centrin1-GFP fusion protein; assay: Centriole number in Centrin1-GFP HeLa cells; type: cell-based; conditions: 0.02 μM, 72 hours
Experimental: The effects of A-1 and A-2 on centrosome function were therefore investigated further. HeLa cells stably expressing a Centrin1-GFP fusion protein were seeded into 96-well plates overnight. Cells were treated with atropisomer A-1 or atropisomer A-2 (at concentrations of 0.02 μM in DMSO) or DMSO control for 72 hours and then imaged using a fluorescence microscope. Multiple cell fields were captured for each treatment condition, and the images were subsequently analysed manually. Centrin1-GFP specifically marks centrioles as discrete foci, and therefore can be used to quantitate centriole number per cell. Thus, for each treatment condition, 100 cells were analysed and the number of centrioles present in each cell was recorded. The data were then separated into bins (no centrioles, 1 centriole, 2 centrioles, and greater than 2 centrioles) and are shown in FIG. 11.

[3] = Mouse PK, plasma after i.v. and p.o. dosing (oral bioavailability); type: in vivo, Male CD-1 mice; conditions: for half-life: read-out: T ½ (converted)
Experimental: as §1, §2, §3, §4, §5

[4] = Chiral stability (interconversion) of isolated atropisomers on heating, chiral HPLC; type: physicochemical; conditions: for % ee of sample @ 40° C. / % ee sample @ 80° C.: EtOH solution, listed as A-2
Experimental: Stability studies were carried out on the isolated atropisomers, atropisomers A-1 and A-2. To assess the interconversion of atropisomer A-1 and atropisomer A-2 chiral stability was monitored at 40° C. and 80° C. […] 1. 2×1 mg of pure atropisomer was dissolved in 1 mL of EtOH in a sealed-dram vial. 2. One set of vials was heated at 40° C. and another set at 80° C. 3. […] 4. Analysis was carried out at the following timepoints: 0 h, 24 h, 48 h, 72 h, 96 h and 240 h for the samples kept at 40° C. and 24 h, 96 h and 240 h for the samples kept at 80° C. using Chiral HPLC method 5

[5] = mouse, po, brain exposure, p.o. 10 mg/kg, male CD-1 mice
[6] = mouse, 2 mg/kg, 2 mq/Kq IV, male CD-1 mice, plasma
[7] = mouse, 10 mg/kg, 10 mq/Kq PO, male CD-1 mice, plasma

Q: For `CN(C)CCNC(=O)c1ccc(-c2ccc(-c3ccc(Cl)cc3)n2-c2ccccc2C(F)(F)F)cc1` (single isomer, unassigned) [Atropisomer A-2, 4-[5-(4-chlorophenyl)-1-[2-(trifluoromethyl)phenyl]pyrrol-2-yl]-N-[2-(dimethylamino)ethyl]benzamide], which Kp ([1]; male, CD-1, mouse, brain and plasma, 10 mg/kg, brain:plasma, oral dosing in mice, read-out: AUC B:P ratio) is on record?
A: 3.3

Q: What about the Cmax [1, 5] of the same compound?
A: 693 ng/mL

Q: What about the Tmax [1, 5] of the same compound?
A: 8 h

Q: And the half-life ([1]; mouse, po, brain exposure, p.o. 10 mg/kg, male CD-1 mice, read-out: T ½ (converted))?
A: 12.1 h

Q: And the AUC(0-t) ([1]; mouse, po, brain, p.o. 10 mg/kg, male CD-1 mice, read-out: AUClast brain)?
A: 20500 ng·h/mL

Q: What about the “brain exposure (in words)” value ([1]; oral dosing in mice) of the same compound?
A: high brain exposure

Q: And the “tumour volume % T/C” value (U87MG tumours)?
A: 3.85%

Q: What about the “PLK4 inhibition phenotypes (centriole number)” value [2] of the same compound?
A: exhibits evidence of PLK4 inhibition phenotypes

Q: What about the CI ([3]; 2 mq/Kq IV, male CD-1 mice, plasma) of the same compound?
A: 20.5 mL/min/kg

Q: What about the F ([3]; 10 mq/Kq PO vs 2 mq/Kq IV, male CD-1 mice) of the same compound?
A: 76%

Q: What about the AUC(0-inf) [3, 6] of the same compound?
A: 1620 ng·h/mL

Q: What about the Cmax [3, 6] of the same compound?
A: 278 ng/mL

Q: What about the half-life [3, 6] of the same compound?
A: 9 h

Q: What about the AUC(0-inf) [3, 7] of the same compound?
A: 6130 ng·h/mL

Q: And the Cmax [3, 7]?
A: 265 ng/mL

Q: What about the half-life [3, 7] of the same compound?
A: 10.7 h

Q: And the AUC(0-t) ([3]; mouse, po, plasma, p.o. 10 mg/kg, male CD-1 mice, read-out: AUClast plasma)?
A: 6130 ng·h/mL

Q: And the “oral absorption / oral bioavailability (in words)” value ([3]; oral dosing in mice)?
A: highly absorbed

Q: And the “% ee of sample @ 40° C.” value ([4]; 0 h)?
A: 97.20 % ee

Q: And the “% ee of sample @ 40° C.” value ([4]; 24 h)?
A: 97.34 % ee

Q: What about the “% ee of sample @ 40° C.” value ([4]; 48 h) of the same compound?
A: 97.30 % ee

Q: What about the “% ee of sample @ 40° C.” value ([4]; 72 h) of the same compound?
A: 97.24 % ee

Q: What about the “% ee of sample @ 40° C.” value ([4]; 96 h) of the same compound?
A: 97.14 % ee

Q: What about the “% ee of sample @ 40° C.” value ([4]; 10 days) of the same compound?
A: 97.46 % ee

Q: What about the “% ee sample @ 80° C.” value ([4]; 0 h) of the same compound?
A: 97.20 % ee

Q: What about the “% ee sample @ 80° C.” value ([4]; 24 h) of the same compound?
A: 95.62 % ee

Q: What about the “% ee sample @ 80° C.” value ([4]; 96 h) of the same compound?
A: 96.62 % ee

Q: And the “% ee sample @ 80° C.” value ([4]; 10 days)?
A: 97.12 % ee

Q: And the “atropisomer classification (LaPlante)” value ([4]; from stability of isolated atropisomers)?
A: Class 3

Q: And the “interconversion / racemization of atropisomers on heating” value ([4]; heating for 10 days at 40° C. and 80° C.)?
A: no interconversion was observed
